In patent US20260235604A1, “A NOVEL MARKER FOR CARDIOMYOCYTES DEDIFFERENTIATION” (National University of Singapore, priority 2023, published 2026):

B1: L-asparaginase (protein, UniProt P00805 23-348, looked up)
L-asparaginase 2: LPNITILATGGTIAGGGDSATKSNYTVGKVGVENLVNAVPQLKDIANVKGEQVVNIGSQDMNDNVWLTLAKKINTDCDKTDGFVITHGTDTMEETAYFLDLTVKCDKPVVMVGAMRPSTSMSADGPFNLYNAVVTAADKASANRGVLVVMNDTVLDGRDVTKTNTTDVATFKSVNYGPLGYIHNGKIDYQRTPARKHTSDTPFDVSKLNELPKVGIVYNYANASDLPAKALVDAGYDGIVSAGVGNGNLYKSVFDTLATAAKTGTAVVRSSRVPTGATTQDAEVDDAKYGFVASGTLNPQKARVLLQLALTQTKDPQQIQQIFNQY

What was measured:
Assay type in all cases: cell-based, mouse
mTORC1 = assay: Western blot of GLUL, p-S6K1, p-4EBP1 in cultured ACMs with Asns KD; details: Asn treatment of D4 Asns^KD ACMs
Experimental: Protein extraction was carried out using 6 M urea lysis buffer with 1 mM dithiothreitol, protease inhibitor and phosphatase inhibitor. For protein extraction from cultured ACMs and purified CMs, lysis buffer was added directly to the cells, followed by vigorous pipetting. For protein extraction from mouse heart apex, a piece of apex tissue resected from each mouse heart was weighted and submerged in 500 μL lysis buffer in a 2 mL Sarstedt tube. One single stainless-steel bead (diameter 5 mm) was added to each tube containing apex tissue in lysis buffer. The TissueLyser II was assembled as per manufacturer's guidelines with pre-chilled adapters. The apex tissue was homogenised for 20 s at 30 Hz for two rounds, until no visible tissue debris was observed. Protein quantification was done using Bio-Rad Protein Assay Kit I as per manufacturer's guidelines.
The protein lysate with loading buffer was heated at 60° C. for 10 mins before loading onto a 10% SDS-polyacrylamide gel. After transfer, the blotting membrane was blocked in 5% blotting-grade blocker in TBST for 1 hour, followed by primary antibody incubation at 4° C. overnight and secondary antibody incubation at room temperature (R.T.) for 1 hour. The blot was detected by ECL substrate reaction and exposure on a ChemiDoc™ touch imaging system (BioRad). The quantification of protein expression level was performed using Fiji software. […]

cultured ACMs [1] = assay: Propidium iodide (PI) staining of cultured ACMs (CM death); details: eliminating Asn in cultured ACMs
Experimental: Purified CMs were either directly lysed for RNA and protein extraction, or pre-plated on uncoated cell culture dishes for 1 hour to further remove non-CMs before culture on laminin-coated cell culture plates. During the first two days of culturing (D0 and D1), 1 µM of blebbistatin (Sigma-Aldrich) was added as a specific myosin II inhibitor (see Kabaeva Z et al., 2008). Starting from D2, blebbistatin was removed to accelerate morphological changes of CMs. 10% FBS was included in the culture media during the whole culture procedure, and the small colonies of non-CMs were carefully scraped under a microscope and washed away daily. Images of CMs were captured using the EVOS® FL Cell Imaging System (Thermo Fisher) under different channels. PI (final concentration 1 μg/mL) and Hoechst (final concentration 1 μg/mL) was added at a to cultured ACMs, and incubated at 37° C. for 45 mins. The ACMs were immediately imaged by Nikon inverted microscope Eclipse Ti-E. For each well in the cell cultured dishes, 8 to 9 random regions were imaged. PI+ CMs were quantified using Fiji software.

cultured ACMs [2] = assay: RT-qPCR of cell cycle genes in cultured ACMs
Experimental: For freshly isolated mouse CMs, a total number of about 120,000 CMs (⅛ of total CMs) per heart were lysed by 1 mL TRIzol™ Reagent. To lyse cultured CMs, 1 mL TRIzol™ Reagent was added to each well in 12-well and 6-well cell culture plates. Total RNA extraction was performed as per manufacturer's protocol.
cDNA was synthesised with oligo dT and random primers using the qScript™ cDNA Synthesis Kit. qPCR was performed with PerfeCTa® Low Rox™ ToughMix™ (Quantabio) on a real-time PCR system. All qPCR data were normalised to the expression of housekeeping genes Gapdh and Rplp0.

Molecule | p-4EBP1 (mTORC1) | p-S6K1 (mTORC1) | cell death (cultured ACMs [1]) | expression of cell cycle genes (Cdk1, Mki67, Aukrb) (cultured ACMs [2])
NC(=O)C[C@H](N)C(=O)O [Asn, asparagine] | restored | promoted | – | –
B1 | – | – | did not induce more cell death | diminished
